Measurements: US20230322933A1, “MODEL FOR PREDICTION OF TOLERABILITY ISSUES IN CONNECTION WITH INTRAVENOUS ADMINISTRATION OF THERAPEUTIC ANTIBODIES” (BIOINVENT INTERNATIONAL AB, priority 2020, published 2023)
Values joined by “and” are separate entries in the source; they are usually repeats but may differ in a detail not shown here. Equal values may be shown once. “Also recorded” adds a separate entry of the source.

Columns and labels:
wildtype C57/BL6 mice [1] = assay: Macroscopic IRRs (scoring 0-2) in mice after injection of surrogate antibody, with or without premedication or split-dosing; assay type: in vivo, mouse; design: key to grade of macroscopic symptoms with single premedication: 0: No visible symptoms; 1: Isolation, decreased activity; 2: Isolation, decreased activity, impaired balance, piloerection, hunching followed by un-natural body posture; conditions: for effect of anti-histamine premedication alone on IRRs / macroscopic symptoms: pre i.v. injection of 10 mg/kg AT-130-2 IgG2a; for effect of adding anti-histamine to two doses of corticosteroid: with 40 mg/kg Betamethasone (24 hours and 1 hour) pre i.v. 10 mg/kg AT-130-2 IgG2a, macroscopic symptoms and platelet counts; for inhibition of IRRs by other pre-medications: given i.p. 1 h prior to i.v. AT-130-2 IgG2a bulk dose 200 ug/mouse
Description: Six to eight weeks-old (17-20 g) female C57/BL6 and Balb C mice were obtained from Taconic or Janvier. Mice were injected i.v with mouse anti-CD32B AT-130-2 IgG2a either as a bulk dose of 200 ug/mouse or as a split-dose with 8 ug/mouse followed by 200 ug/mouse.
For the corticosteroid treatment, Betapred (betamethasone, VNR: 008938, Alfasigma S.P.A.) was used at 10 mg/kg which is a suboptimal dose in these mouse models.
Split-dosing was initiated 24 h post corticosteroid treatment with 8 ug/mouse of mouse anti-CD32B AT-130-2 IgG2a i.v. followed by a bulk-dose of 200 ug/mouse 20-40 minutes later. In parallel mice were injected with only the bulk-dose.
Mice were monitored post injection with regards to changes in behavior and macroscopic symptoms such as isolation, mobility, and fur condition. Macroscopic IRRs scoring system of 0-2 was set up based on the observations.
Other premedications evaluated were anti-PAF (CV3988, sc-201015, Santa Cruz 20 mg/kg), anti-IL6 (clone 15A7, BE0047, Bioxcell, 10 mg/kg), anti-histamine (Zantac, VNR: 077875, GlaxoSmithKline AB, 5 mg/kg) or a leukotriene-antagonist (131064, Apoex, 4 mg/kg). These premedications were given i.p 1 h prior to injection i.v of mouse anti-CD32B AT-130-2 IgG2a as a bulk dose of 200 ug/mouse.
Six to eight weeks-old (17-20 g) female C57/BL6 mice were obtained from Taconic. Mice were injected either intra-venous (i.v.), […] (i.p.) or sub-cutaneous (s.c.) with mouse anti-CD32B AT-130-2 IgG2a in doses ranging from 1 μg-400 μg/mouse.
For the corticosteroid treatment, Betapred (betamethasone, VNR: 008938, Alfasigma S.P.A.) or Dexamethasone (Cat. No: S1322, batch no: 02, Selleckchem) was used. For the anti-histamine treatment Zyrlex (10 mg/ml, VNR: 523084, MACURE PHARMA ApS), Zantac (25 mg/ml, VNR: 077875, GlaxoSmithKline AB) or Aeurius (0.5 mg/ml, VNR: 097288, Merck Sharp & Dohme BV) was used.
Mice were monitored post injection with regard to changes in behavior and macroscopic symptoms such as isolation, mobility, and fur condition. Macroscopic IRRs scoring system of 0-2 was set up based on the observations: […]
For the corticosteroid treatment, Betapred (betamethasone, VNR: 008938, Alfasigma S.P.A.) or Dexamethasone (Cat. No: S1322, Batch No: 02, Selleckchem) was used.

wildtype C57/BL6 mice [2] = assay: Platelet counts in fresh mouse blood (Vetscan) after antibody injection; assay type: in vivo; conditions: pre i.v. injection of 10 mg/kg AT-130-2 IgG2a
Description: Blood samples were collected from vena saphena 20 min post injection of bulk dose of anti-CD32B for instant blood count analysis. For liver enzyme and cytokine analysis, the mice were bled from the aorta under isoflurane anesthesia just prior to sacrifice. Samples for liver enzymes and cytokines were collected 1 h and respectively 3 h after bulk dose.
Platelet counts were analyzed in fresh blood using a Vetscan (Vetscan HM5 Abaxis, Triolab).
Blood samples were collected from vena saphena for instant blood count analysis. For serum concentrations of AT130-2, liver enzyme and cytokine analysis, the mice were bled from the aorta under isoflurane anesthesia just prior to sacrifice.
Blood samples were collected from vena saphena for instant blood count analysis.

mouse CD32B (mouse) = mouse CD32B (mouse) (UniProt P08101); assay: receptor saturation at 10 µg/ml AT-130-2; separate experiments not shown in the filing
FcγRIIB = biological target: T1, FcγRIIB (Homo sapiens, UniProt P31994); assay: FcgRIIb receptor occupancy on peripheral B cells (flow cytometry); assay type: in vivo; conditions: 100 mg BI-1206; preliminary data
T1 construct: endogenous in cells; host or cells: peripheral CD19+ B cells in whole blood of human subjects (B-cell NHL / CLL patients)
T1 sequence (P31994 43-310): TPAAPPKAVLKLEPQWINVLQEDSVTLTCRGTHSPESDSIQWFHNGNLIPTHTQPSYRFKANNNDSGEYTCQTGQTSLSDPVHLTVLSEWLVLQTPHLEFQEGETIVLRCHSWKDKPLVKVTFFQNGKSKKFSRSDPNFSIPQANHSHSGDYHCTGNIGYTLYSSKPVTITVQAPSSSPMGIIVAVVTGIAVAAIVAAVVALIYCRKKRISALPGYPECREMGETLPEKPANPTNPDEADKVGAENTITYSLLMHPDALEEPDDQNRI
Description: The FcgRIIb receptor occupancy in humans and hFcgRIIb transgenic mice was analyzed using flow cytometry. Whole blood from was incubated with either 005-005 antibody (targeting hFcgRIIb) or anti-hCD32-AF647 antibody. 005-005 binds the same epitope as BI-1206 but with much lower affinity. In the analysis, the Geo Mean of respectively mAb (005-005 and anti-human CD32) was acquired on the CD19+ cell population. Receptor occupancy (RO) was calculated using the following equations: RO (%)=((Total Receptors-Normalized Free Receptors)*100)/Total Receptors. All replicates of 005-005 geo mean of CD19+ cells were then multiplied by the Normalization factor.

peripheral B lymphocytes = assay: Peripheral B lymphocyte depletion after BI-1206 infusion; assay type: in vivo, human; conditions: 100 mg BI-1206; preliminary data
[3] = tested on: human subjects with non-hodgkins B-cell lymphoma; assay: Cytokine release in plasma/serum after BI-1206 infusion (MSD); assay type: in vivo; conditions: ≥70 mg (70-100 mg) BI-1206
Description: For cytokine concentrations, frozen plasma samples were thawed and diluted ×2 and x8. Two parallel set of cytokines were analyzed, the proinflammatory assay with IL-6, IL-8, TNF-α, IFN-γ, IL-10, IL-2 and IL-4 (MesoScale Discovery (MSD) #K15049), and the chemokine assay with MIP-113, IL-113, IL-23, IL-12p70, TARC and VEGF (MSD #K15067). The assays followed the manufacturer's protocol as outlined briefly: 50 μL of sample and calibration standard were added to the appropriate MSD plates and incubated. Following washing, 25 μL of SULFO-TAG detection antibody mixture were added to each well of the corresponding plate. The plates were analyzed on a QuickPlex SQ120 Reader instrument (MSD) and cytokine concentration was calculated using the MSD software (Discovery Workbench, 2013; version LSR-4-0-12).

[4] = tested on: human subjects with non-hodgkins B-cell lymphoma; assay: Clinical response in patients treated with BI-1206; assay type: in vivo; conditions: after incorporation of the premedication regimen into the clinical protocol
[5] = tested on: human subjects with non-hodgkins B-cell lymphoma; assay: ALT/AST in clinical studies with BI-1206; conditions: ≥70 mg (70-100 mg) BI-1206
Description: (§1) Platelet counts, ALT concentrations and IRR grading Platelet counts, ALT concentrations and IRR grading were obtained from clinical sites where analyzed and reported according local standard procedures.

[6] = tested on: human subjects with non-hodgkins B-cell lymphoma; assay: Platelet counts in clinical studies with BI-1206
Description: as §1

[7] = tested on: human subjects with non-hodgkins B-cell lymphoma; assay: Infusion related reactions (IRR grading) in clinical studies with BI-1206
Description: as §1
Part of the data is based on personal communication with individual investigators.

Sequence of mouse CD32B (mouse) (P08101 30-207 limits assumed): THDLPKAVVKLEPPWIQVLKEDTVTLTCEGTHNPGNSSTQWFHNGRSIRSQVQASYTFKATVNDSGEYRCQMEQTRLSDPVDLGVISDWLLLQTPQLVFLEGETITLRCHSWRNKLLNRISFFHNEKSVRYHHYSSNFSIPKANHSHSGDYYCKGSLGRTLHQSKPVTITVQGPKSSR

How did the “effect of anti-histamine premedication alone on IRRs / macroscopic symptoms” value (“effect … on IRRs / macroscopic symptoms” for short) (wildtype C57/BL6 mice [1]; 10 mg/kg) turn out when `Clc1ccc2c(c1)CCc1cccnc1C2=C1CCNCC1` [Aeurius] was run?
Its value is “did not inhibit IRRs or platelet decrease”.

What about the “effect … on IRRs / macroscopic symptoms” value (wildtype C57/BL6 mice [1]; listed as Au, 10 mg/kg) of the same compound?
The value was “The same results were seen”.

And the “effect of adding anti-histamine to two doses of corticosteroid” value (shortened to “effect of adding anti-histamine”) (wildtype C57/BL6 mice [1])?
The value was “the protective effect was retained”.

And the “effect of anti-histamine premedication alone on platelet decrease” value (shortened to “effect … on platelet decrease”) (wildtype C57/BL6 mice [2])?
Its value is “did not inhibit IRRs or platelet decrease”.

With `O=C(O)COCCN1CCN(C(c2ccccc2)c2ccc(Cl)cc2)CC1` (centres unmarked) [Zyrlex] as the compound, how does the “effect … on IRRs / macroscopic symptoms” value (wildtype C57/BL6 mice [1]; 10 mg/kg) read?
Its value is “The same results were seen; also recorded: did not inhibit IRRs or platelet decrease”.

And the “effect of adding anti-histamine” value (wildtype C57/BL6 mice [1])?
Its value is “the protective effect was retained”.

And the “effect … on platelet decrease” value (wildtype C57/BL6 mice [2])?
The value was “did not inhibit IRRs or platelet decrease”.

How did the “inhibition of IRRs by other pre-medications” value (wildtype C57/BL6 mice [1]) turn out when `CCCCCCCCCCCCCCCCCCNC(=O)OCC(COP(=O)([O-])OCC[n+]1ccsc1)OC` (stereo not drawn) [anti-PAF] was run?
The value was “None of these pre-medications could inhibit IRRs; also recorded: none of the tested substances (anti-PAF, anti-IL-6, anti-histamine and a leukotrien-antagonist) could prevent the IRRs”.

With `CC(C)(C)c1ccc(C(O)CCCN2CCC(C(O)(c3ccccc3)c3ccccc3)CC2)cc1` (stereo not drawn) [anti-histamine] as the compound, how does the “inhibition of IRRs by other pre-medications” value (wildtype C57/BL6 mice [1]) read?
The value was “None of these pre-medications could inhibit IRRs; also recorded: none of the tested substances (anti-PAF, anti-IL-6, anti-histamine and a leukotrien-antagonist) could prevent the IRRs”.

What about the “effect … on IRRs / macroscopic symptoms” value (wildtype C57/BL6 mice [1]) of the same compound?
The value was “did not inhibit macroscopic symptoms”.

And the “effect of adding anti-histamine” value (wildtype C57/BL6 mice [1])?
The value was “did not affect macroscopic symptoms or platelet counts”.

What about the “effect … on platelet decrease” value (wildtype C57/BL6 mice [2]) of the same compound?
Its value is “did seem to improve decrease in platelet counts”.

`C[C@H]1C[C@H]2[C@@H]3CCC4=CC(=O)C=C[C@]4(C)[C@@]3(F)[C@@H](O)C[C@]2(C)[C@@]1(O)C(=O)CO` [betamethasone] was tested. Which “grade of macroscopic symptoms with single premedication” value (wildtype C57/BL6 mice [1]; 40 mg/kg only 24 hours before i.v. 10 mg/kg AT-130-2 IgG2a) did it give?
Its value is 1.

With AT-130-2 IgG2a (antibody) as the compound, how does the receptor saturation (mouse CD32B (mouse)) read?
Its receptor saturation is 100%.

What does the source list for “BI-1206: anti-FcγRIIb antibody with light chain SEQ ID No:1 and heavy chain SEQ ID No:2”?
duration of receptor saturation (FcγRIIB): up to 48 hours; receptor occupancy on peripheral B cells (FcγRIIB): ~100%; peripheral B lymphocytes (peripheral B lymphocytes): transient depletion of peripheral B lymphocytes; time to recovery of peripheral B lymphocytes (peripheral B lymphocytes): approximately 7 days; time to normalization of cytokines [3]: ≤ 24 h; clinical responses [4]: Both complete and partial responses have been observed; subjects with significant ALT and AST increase [5]: 3/14 and 3 out of 16; platelet decrease ([6]; 70 mg BI-1206, subjects 501-001 and 503-002, two doses of dexamethasone): no/low platelet decrease; seriousness and resolution of thrombocytopenia ([6]; 70-100 mg / ≥50 mg BI-1206): The decrease is transient and most episodes have been resolved within a week; also recorded: has not been serious nor associated with bleeding and most episodes resolved within a week; platelets ([6]; ≥50 mg BI-1206): transient decrease in platelets; grade of IRR's ([7]; 30 mg BI-1206, subject 201-003, 10th administration, two doses of dexamethasone): 1; IRRs ([7]; 70 mg BI-1206, subjects 501-001 and 503-002, dexamethasone 12 mg or 4 mg the evening before and 20 mg 30 minutes prior): None of the subjects suffered any IRRs; also recorded: Both subjects did not suffer IRRs; grade of IRRs ([7]; 70 mg BI-1206, subjects 501-001 and 503-002, dexamethasone (20 mg) only 30 minutes prior to infusion): 2-3 grade; severity and frequency of IRRs after implementation of premedication with two doses of corticosteroids ([7]; 70-100 mg BI-1206, study 17-BI-1206-02): Significantly lower frequency and severity of IRRs; also recorded: statistically significant reduced severity and frequency of IRRs; infusion related reactions during BI-1206 infusions ([7]; i.v. administration, human subjects): frequently associated with IRRs; also recorded: Frequent infusion related reactions (IRRs) have been seen
